Here are results for one compound from PMC10518717, “High-Throughput Screening and Proteomic Characterization of Compounds Targeting Myeloid-Derived Suppressor Cells” (Molecular & Cellular Proteomics : MCP, 2023).

The experiment concerns the target T1, NUP-MDSC cell lysate (Mus musculus, UniProt P59644).
T1 construct: endogenous in cells; host or cells: mouse NUP-MDSC (lysate)
T1 sequence (P59644 1-1003): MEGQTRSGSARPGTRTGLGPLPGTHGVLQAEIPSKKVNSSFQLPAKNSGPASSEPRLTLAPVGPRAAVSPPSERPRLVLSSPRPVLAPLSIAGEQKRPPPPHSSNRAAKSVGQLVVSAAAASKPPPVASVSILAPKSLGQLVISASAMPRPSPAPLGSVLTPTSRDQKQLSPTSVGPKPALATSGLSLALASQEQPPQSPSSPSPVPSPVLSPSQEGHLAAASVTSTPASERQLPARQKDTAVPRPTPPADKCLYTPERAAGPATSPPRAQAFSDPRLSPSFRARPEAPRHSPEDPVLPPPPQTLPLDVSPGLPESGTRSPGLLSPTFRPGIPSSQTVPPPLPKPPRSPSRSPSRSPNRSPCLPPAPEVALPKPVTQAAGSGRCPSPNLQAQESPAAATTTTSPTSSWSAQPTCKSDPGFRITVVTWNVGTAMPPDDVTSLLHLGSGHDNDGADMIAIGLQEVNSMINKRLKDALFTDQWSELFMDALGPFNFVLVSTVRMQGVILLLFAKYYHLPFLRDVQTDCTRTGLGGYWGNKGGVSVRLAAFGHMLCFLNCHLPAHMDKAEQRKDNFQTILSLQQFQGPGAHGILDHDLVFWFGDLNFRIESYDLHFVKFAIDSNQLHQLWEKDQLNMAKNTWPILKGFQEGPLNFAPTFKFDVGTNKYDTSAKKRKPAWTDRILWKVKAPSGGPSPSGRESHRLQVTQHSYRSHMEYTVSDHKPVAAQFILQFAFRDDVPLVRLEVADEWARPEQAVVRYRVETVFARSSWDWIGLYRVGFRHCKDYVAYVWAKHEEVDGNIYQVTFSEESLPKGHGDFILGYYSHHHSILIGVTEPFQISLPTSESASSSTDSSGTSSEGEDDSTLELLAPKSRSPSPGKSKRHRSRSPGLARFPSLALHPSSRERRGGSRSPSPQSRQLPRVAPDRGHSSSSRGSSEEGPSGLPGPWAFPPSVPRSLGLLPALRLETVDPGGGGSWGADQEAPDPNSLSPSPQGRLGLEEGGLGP
Put plainly: Solvent-induced protein precipitation profiling, proteome-wide. It is filed as binding. The following applies: protein Inpp5j; soluble fraction; 26 uM. Here is the method:
NUP-MDSCs were differentiated as described above, washed twice with PBS, resuspended in lysis buffer (PBS, 0.4% IGEPAL CA-630, 1× Halt Protease-Inhibitor Cocktail (Thermo Fisher Scientific)), and subjected to three freeze-thaw cycles. The lysate was cleared by centrifugation for 30 min at 18,000g and 4 °C. The soluble fraction was diluted to 4 mg/ml and allowed to warm up to room temperature. Equal volumes of lysate were treated in triplicates with 100 x compound stock solutions (in DMSO) or DMSO for 15 min at room temperature (final concentrations: cmpd 2: 7.8 μM (3xEC50) and 26 μM (10xEC50), cmpd 3: 10 μM and 26 μM). Similar to a previous study ([46]), each sample was divided into eight aliquots to be denatured using different concentrations (8%, 10%, 12%, 14%, 16%, 18%, 20%, 22%) of acetone:ethanol:acetic acid (50:50:0.1) in water for 20 min at 37 °C with vigorous shaking. Aggregated proteins were separated by centrifugation for 45 min at 4 °C and 3900g. Next, equal amounts of the soluble fraction were pooled for subsequent proteomic analysis.
Methanol was added to 100 μg of the pooled supernatants to a final concentration of 70% and further processed according to the R2P1 protocol ([47]), with tryptic digestion performed in 50 mM Hepes (pH 8.5). Elution fractions were combined and dried by vacuum centrifugation. Dried samples were resuspended in deionized water, and TMT labeling was performed according to Zecha et al. ([35]). All 15 samples (5 treatment conditions in triplicates) were labeled with one TMTpro plex. Next, equal amounts were pooled and desalted by C18 solid-phase extraction cartridges (Sep-Pak Vac 1 cc C18 Cartridges, Waters Corp). Desalted peptides were chromatographically separated via basic reversed phase chromatography as previously described ([36]) into 24 fractions, dried down, and stored at −20 °C until further analysis.
Peptides were analyzed via LC-MS/MS on a Vanquish Neo UHPLC coupled to an Orbitrap Eclipse Tribrid mass spectrometer (Thermo Fisher Scientific). […] The mass spectrometer was operated in data-dependent mode and positive ionization mode. Samples were measured, employing a MS3 method with real-time search. […] Iontrap-MS2 spectra for peptide identification were acquired using HCD fragmentation with 35% NCE, an isolation window of 0.7 m/z, an AGC target value of 5e4 charges, and a maxIT of 35 ms. To obtain quantitative information on TMT reporter ions, each peptide precursor was fragmented again as for MS2 analysis followed by synchronous selection of the up to 10 most intense peptide fragments in the iontrap ([37]) and further fragmentation via HCD using an NCE of 55%. For the MS3 scan, real-time search was enabled to only trigger a MS3 scan for peptides that are TMT-labeled and can be identified (searched against a mouse database, same as used for maxquant processing). The MS3 scan was recorded in the OT at 30,000 resolution (scan range 110–500 m/z, isolation window of 0.7 m/z, AGC of 2e4 charges, maxIT of 120 ms). The cycle time was set to 3 s, and the dynamic exclusion lasted for 60 s.
Raw files were searched with Maxquant (v. 2.0.3.0) against the mouse reference proteome (UP000000589, canonical, download 10/2019, 55,029 entries) with standard settings for reporter ion MS3 unless described otherwise ([39]). Isotope impurities of the TMT lot were specified to allow MaxQuant the automated correction of TMT intensities. […] Trypsin/P was specified as the proteolytic enzyme with up to two missed cleavage sites allowed. […]

Take `CCOC(=O)c1nnn(-c2nn3nnnc3c3ccccc23)c1C` [compound 2]: the “log2 FC cmpd2_26uM/cmpd3_26uM” value worked out at 0.07.
